The target in series [1] is T1, human ANO1 channel (isoform acd) (Homo sapiens, UniProt Q5XXA6).
T1 construct: host or cells: HEK293T
T1 sequence (Q5XXA6 1-986): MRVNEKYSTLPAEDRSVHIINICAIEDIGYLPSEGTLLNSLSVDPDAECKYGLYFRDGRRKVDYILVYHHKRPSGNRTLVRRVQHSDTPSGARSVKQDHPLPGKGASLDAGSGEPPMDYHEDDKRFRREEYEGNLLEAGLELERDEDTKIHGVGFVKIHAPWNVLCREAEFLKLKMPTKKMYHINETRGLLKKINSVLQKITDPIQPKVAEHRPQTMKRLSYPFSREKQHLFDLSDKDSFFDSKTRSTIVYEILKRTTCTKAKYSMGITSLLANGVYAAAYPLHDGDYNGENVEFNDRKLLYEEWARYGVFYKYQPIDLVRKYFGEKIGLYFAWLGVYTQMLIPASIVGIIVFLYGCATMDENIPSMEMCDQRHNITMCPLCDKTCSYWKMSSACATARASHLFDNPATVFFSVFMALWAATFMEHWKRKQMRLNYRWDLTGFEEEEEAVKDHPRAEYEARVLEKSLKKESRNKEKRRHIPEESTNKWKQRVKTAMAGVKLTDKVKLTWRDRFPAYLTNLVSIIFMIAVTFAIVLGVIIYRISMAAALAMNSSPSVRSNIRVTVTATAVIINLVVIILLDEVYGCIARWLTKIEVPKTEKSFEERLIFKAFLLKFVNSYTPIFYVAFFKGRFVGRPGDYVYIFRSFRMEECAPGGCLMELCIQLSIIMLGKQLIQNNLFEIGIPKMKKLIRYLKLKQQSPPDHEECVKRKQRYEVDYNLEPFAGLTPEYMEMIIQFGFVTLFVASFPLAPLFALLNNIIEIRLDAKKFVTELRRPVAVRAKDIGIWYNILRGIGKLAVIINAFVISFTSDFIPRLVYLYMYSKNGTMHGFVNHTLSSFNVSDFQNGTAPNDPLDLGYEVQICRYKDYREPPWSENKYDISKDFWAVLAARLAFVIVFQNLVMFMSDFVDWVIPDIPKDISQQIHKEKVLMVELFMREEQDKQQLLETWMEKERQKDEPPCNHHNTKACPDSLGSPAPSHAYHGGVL
The series is described as follows: QPatch-48 automated whole-cell electrophysiology, cumulative five-concentration single-addition protocol. It is filed as cell-based. The protocol:
HEK293T cells stably expressing the human ANO1 channel (isoform acd) were obtained from Scottish Biomedical. Cells were cultured in Sigma Minimum Essential Media containing 10% heat-inactivated fetal bovine serum, 1% penicillin/streptomycin, 1% glutamine, and […] geneticin. Cells were maintained in a 37°C, 5% CO2 environment. Cells were passaged every 3 days after they had reached ∼70% confluency and were not allowed to reach a density greater than 1–2 × 10^5 cells/cm^2 during routine culture. When subculturing, cells were rinsed once with room temperature 1 × phosphate-buffered saline (PBS; Ca^2+/Mg^2+ free), lifted with TrypLE Express, resuspended in prewarmed growth media, and counted using a hemocytometer. Cells were then plated in T150 flasks at a density of 2.9 × 10^4 cells/cm^2 to be either used in the assay or subcultured 72 h later.
On the day of the experiment, cells plated at a density of 2.9 × 10^4 cells/cm^2 72 h prior should be ∼70%–80% confluent. After cells were rinsed with prewarmed 1 × PBS (Ca^2+/Mg^2+ free), 3 mL of room temperature Detachin solution (Genlantis) was added to the flask and tilted gently two to three times to cover all the cells. Approximately 2 mL of Detachin was aspirated from the flask, leaving 1 mL on the cells, and then placed in the 37°C incubator for 5 min. Once cells had rounded up, the cells were dislodged by tapping the flask gently. The cells were then resuspended in 5 mL of warm serum-free media (EX-CELL ACF CHO Medium; Sigma; supplemented with 4 mM L-glutamine and 10 mM HEPES). A glass Pasteur pipette with a rubber bulb was then used to gently dissociate the cells from one another. Detachin will often leave cells as doublets or clumps, conditions that will disrupt seal formation on the QPatch. The cells were triturated ∼30 times and then, still using the Pasteur pipette, transferred into the QPatch Cell Hotel. This ensures that cells detach from one another leaving a suspension of single cells. A QStirrer was added to the Cell Hotel and the cell suspension was immediately placed on the QPatch device. Cells were utilized within 15 min.
Compounds were reconstituted in dimethyl sulfoxide (DMSO; Sigma) as 10 mM stock solutions. An automated dilution machine set up the microtiter plate (MTP ) by making 1:5 dilutions from a starting concentration of 30 μM. The concentration of DMSO was equal for all concentrations tested. Each MTP contained one row of a negative control (DMSO) and a positive control (benzbromarone). A total of eight compounds were run at a time. All compounds tested were produced in-house.
Whole-cell patch-clamp experiments were performed on a QPatch-48-automated electrophysiology platform (Sophion Biosciences) using the 48-channel, single-hole QPlate (resistance 2.0 ± 0.4 MΩ). The external buffer (in mM) was 140 NaCl, 4 KCl, 2 CaCl2, 1 MgCl2, 10 HEPES, 10 glucose, pH 7.4 (osmolarity = 300), and the internal buffer (in mM) was 110 CsCl, 20 TEA-Cl, 5.374 CaCl2, 1.75 MgCl2, 10 EGTA, 10 HEPES, 4 Na2ATP, pH 7.2 (osmolarity = 310). Cell positioning was set to a 5-s wait time with a positioning pressure of −60 mbar and a positioning time-out of 60 s. Resistance was set to increase 750% to ensure the success of positioning. To obtain a seal, pressure was increased to −70 mbar with an allowed pressure of −130 to −20 mbar and a holding pressure of −20 mbar. The holding potential was set to −70 mV and a 240-s time-out was set. The minimum seal resistance was set to 0.02 GΩ. To go whole cell, five 1-s suction pulses were applied starting at −180 mbar and increasing with −40 mbar increments with a pulse period of 10 s. Suction ramp and voltage zap protocols were kept standard, according to the default HEK cell settings. […] The suction ramp order of use was set to 2 with a ramp amplitude of −450 mbar and a ramp slope of 100 ms/mbar.
Once established in whole-cell configuration, cells are clamped to a holding potential (Vhold) of 0 mV.
(In general: Patch clamp records ionic current or voltage across a cell membrane.)

For series [2], the target named is T2, TMEM16A (Homo sapiens, UniProt Q5XXA6).
T2 construct: expressed in transfected cells; host or cells: HEK293T-derived, doxycycline-inducible
T2 sequence (Q5XXA6 1-986): T1 sequence (Q5XXA6 1-986)
Briefly: fluorescence-based eYFP-quench assay. The format is cell-based. The following applies: iodide based assay. The source says: This was possibly due to the eYFP assay being iodide based, since it has been reported that the anion passing through the pore has an effect on the open state of the channel.[12] It is also impossible to control the intracellular calcium level in this assay, which could explain the discrepancy in potency.[37] […] There is clearly a need for an automated electrophysiology assay for TMEM16A, whether looking at activators or inhibitors. TMEM16A has proven to be a difficult channel for electrophysiology, owing to its fast rundown, small currents, and the fact that it is a ligand-gated channel. In addition, fluoride, typically used in automated patch-clamp assays to improve seal quality, is known to decrease calcium salt solubility. Therefore, a fluoride-free internal solution is preferable when trying to control for a precise internal calcium concentration.

Details of series [3]: method as in PMID 28493701. Conditions: cited from earlier work.
The target of series [4] is T2, TMEM16A. Details: method as in PMID 24642630. Conditions: read-out: reported IC50; cited from earlier work.
The mark [5] stands for this setting: independent experiment 1, block at +100 mV, 250 nM internal free-calcium, read-out: IC50s for independent experiments 1.
Where [6] appears, read: independent experiment 2, read-out: IC50s for independent experiments 2.
Setting [7] is: independent experiment 3, read-out: IC50s for independent experiments 3.
[8] abbreviates: independent experiment 4, read-out: IC50s for independent experiments 4.

Read-outs that look alike come from different tables or passages of the source.

Take `N#Cc1c(C(F)(F)F)cc(O)n2c1nc1ccccc12` [1PBC]: the IC50 in series [1] (setting [5]) is 1.18 µM; in series [1] (setting [6]), 0.85 µM; in series [1] (setting [7]) it was 1.1 µM; in series [1] (setting [8]) it was 1.57 µM. In series [1] (versus reported value, ref 36 (mouse TMEM16A)), the “potency relative to that reported” value is about 10 times. Further, at TMEM16A [2], the “inhibition in eYFP-quench assay” value was determined as 40%.

Turning to `COc1ccccc1/C=N/NC(=O)COc1ccc(Cl)cc1C` [Ani9], the metabolic stability result in series [3] is given as “metabolically unstable”.

Turning to `O=C(O)c1cccnc1Nc1cccc(C(F)(F)F)c1` [Niflumic acid], the IC50 in series [1] (full plate format (with rundown), n = 3, read-out: IC50, full plate) amounted to 3.89 ± 0.11 µM; in series [1] (setting [5]) it was 5.29 µM; in series [1] (setting [6]), 4.62 µM; in series [1] (setting [7]), 8.45 µM; in series [1] (setting [8]) it was 11.1 µM; in series [1] (independent experiment 5, read-out: IC50s for independent experiments 5), 7.71 µM. In addition, on TMEM16A [4], the IC50 was 12 µM. Further, the “effect on deactivation rate” value in series [1] (tail current deactivation) is listed as “slower deactivation rate”.

For the compound `CCc1c(C)nc(SCC(=O)Nc2nc(-c3ccc(OC)cc3)cs2)[nH]c1=O` [T16Ainh-A01], the block of current in series [1] (maximum block seen) is on record as at most 40%.

These data come from article PMC7268545, “Development of a QPatch-Automated Electrophysiology Assay for Identifying TMEM16A Small-Molecule Inhibitors” (Assay and Drug Development Technologies, 2020).
